Biological target: recombinant human CETP protein (Homo sapiens (Human), UniProt P11597)
Test: Test of CETP inhibition activity (in vitro, buffer-based)
Assay type: biochemical
Conditions: reconstituted HDL with [14C]-labeled cholesteryl ester, acceptor lipoprotein, 37° C.
Summary of the method: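 Reconstituted HDL carrying [14C]-cholesteryl ester served as donor and plasma IDL/LDL (density 1.019–1.063) as acceptor, with 4.5 ng recombinant CETP in PBS pH 7.4. Compound (DMSO stocks 0.15–500 μM) was preincubated with CETP and acceptor for 60 min at 37 °C, then reacted with donor for 60 min. HDL-fraction radioactivity after MgCl2/dextran sulfate precipitation gave % inhibition and IC50.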

Chain of recombinant human CETP protein (P11597 18-493): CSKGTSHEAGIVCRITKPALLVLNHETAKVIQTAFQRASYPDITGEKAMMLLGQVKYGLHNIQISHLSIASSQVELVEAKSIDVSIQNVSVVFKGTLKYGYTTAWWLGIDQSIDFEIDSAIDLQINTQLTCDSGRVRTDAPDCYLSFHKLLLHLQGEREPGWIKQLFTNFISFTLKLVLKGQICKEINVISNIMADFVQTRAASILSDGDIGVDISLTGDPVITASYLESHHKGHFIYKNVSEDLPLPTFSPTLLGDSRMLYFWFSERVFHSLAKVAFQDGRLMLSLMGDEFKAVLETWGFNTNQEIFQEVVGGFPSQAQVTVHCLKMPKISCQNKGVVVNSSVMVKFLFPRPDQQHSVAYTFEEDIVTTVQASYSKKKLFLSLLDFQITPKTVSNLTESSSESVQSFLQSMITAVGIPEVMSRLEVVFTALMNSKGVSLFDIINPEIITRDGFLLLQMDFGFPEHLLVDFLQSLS

| SMILES | IC50 [µM] |
| --- | --- |
| CC1(C)Cc2nc(C3CCN(c4ncc(OC[C@@H](O)CO)cn4)CC3)c([C@@H](F)c3ccc(C(F)(F)F)cc3)c(C3CCC(F)(F)CC3)c2[C@@H](O)C1 [Example 39, (−)-4-(4,4-Difluorocyclohexyl)-2-[1-(5-{[(2S)-2,3-dihydroxypropyl]oxy}pyrimidin-2-yl)piperidin-4-yl]-3-{fluoro[4-(trifluoromethyl)phenyl]methyl}-7,7-dimethyl-5,6,7,8-tetrahydroquinolin-5-ol] | 0.032 |
| CC1(C)Cc2nc(C3CCN(c4ncc(OCCCO)cn4)CC3)c([C@@H](F)c3ccc(C(F)(F)F)cc3)c(C3CCC(F)(F)CC3)c2[C@@H](O)C1 [Example 46, (−)-4-(4,4-Difluorocyclohexyl)-3-{fluoro[4-(trifluoromethyl)phenyl]methyl}-2-{1-[5-(3-hydroxypropoxy)pyrimidin-2-yl]piperidin-4-yl}-7,7-dimethyl-5,6,7,8-tetrahydroquinolin-5-ol] | 0.016 |
| CC1(C)Cc2nc(C3CCN(c4ncc(-c5cccc(C(=O)O)c5)cn4)CC3)c([C@@H](F)c3ccc(C(F)(F)F)cc3)c(C3CCC(F)(F)CC3)c2[C@@H](O)C1 [Example 55, (−)-2-{1-[5-(3-Carboxyphenyl)pyrimidin-2-yl]piperidin-4-yl}-4-(4,4-difluorocyclohexyl)-3-{fluoro[4-(trifluoromethyl)phenyl]methyl}-7,7-dimethyl-5,6,7,8-tetrahydroquinolin-5-ol] | 0.059 |

Source: patent US9187450B2, “Substituted pyridine compound” (Daiichi Sankyo Company, Limited, priority 2010, dated 2015)
